Results on 10 compounds are retold here after patent EP0396251A2, “Use of fatty acids for the treatment of diseases associated with cytokines” (NATIONAL UNIVERSITY OF SINGAPORE, priority 1989, dated 1990).

Data set [1] relates to induction of antiviral state by mouse interferon in mouse L cells. It is filed as cell-based. The settings on record: 50 µM.
The subject of data set [2] is induction of antiviral state by human α interferon in human fibroblasts. It is filed as cell-based.
Data set [3] deals with antiviral state induced by human α interferon. The data set can be described thus: cells. The class given is cell-based. Conditions: for inhibited the action of interferon: summary of Table 3, concentrations and serum as in Table 3.
In data set [4] the test system is total cellular protein synthesis. Kind of data set: Total cellular protein synthesis. It is filed as cell-based.
For data set [5], the system named is antiviral state induced by human β interferon. Kind of data set: cells. The class given is cell-based. Conditions: Fibroblast, 6 h, read-out: % inhibition of antiviral state induced by: human β interferon.
Data set [6] concerns uptake of ³[H]-uridine by the cells. Kind of data set: Uptake of 3[H]-uridine by the cells. The class given is cell-based.
The subject of data set [7] is antiviral state induced by human γ interferon. Kind of data set: cells. The class given is cell-based. The settings on record: Fibroblast, 6 h, read-out: % inhibition of antiviral state induced by: human γ interferon.
A further data set deals with T1, interferon receptors (Homo sapiens, UniProt P17181+P48551).
T1 construct: endogenous in cells; host or cells: human fibroblasts
T1 sequence (P17181 28-557): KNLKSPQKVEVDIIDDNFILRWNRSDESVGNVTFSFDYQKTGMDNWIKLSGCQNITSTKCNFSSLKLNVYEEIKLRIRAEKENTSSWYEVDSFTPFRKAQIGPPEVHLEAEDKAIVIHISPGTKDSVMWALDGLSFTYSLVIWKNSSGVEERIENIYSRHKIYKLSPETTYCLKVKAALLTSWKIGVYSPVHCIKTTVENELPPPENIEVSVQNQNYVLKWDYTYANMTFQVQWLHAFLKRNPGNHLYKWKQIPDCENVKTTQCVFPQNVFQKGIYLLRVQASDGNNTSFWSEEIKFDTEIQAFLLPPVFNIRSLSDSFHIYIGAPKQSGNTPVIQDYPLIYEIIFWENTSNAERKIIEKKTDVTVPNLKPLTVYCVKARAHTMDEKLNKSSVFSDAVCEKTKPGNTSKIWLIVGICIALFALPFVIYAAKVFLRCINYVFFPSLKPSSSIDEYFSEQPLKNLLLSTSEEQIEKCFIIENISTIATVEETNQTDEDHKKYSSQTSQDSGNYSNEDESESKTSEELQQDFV
T1 sequence (P48551 27-515): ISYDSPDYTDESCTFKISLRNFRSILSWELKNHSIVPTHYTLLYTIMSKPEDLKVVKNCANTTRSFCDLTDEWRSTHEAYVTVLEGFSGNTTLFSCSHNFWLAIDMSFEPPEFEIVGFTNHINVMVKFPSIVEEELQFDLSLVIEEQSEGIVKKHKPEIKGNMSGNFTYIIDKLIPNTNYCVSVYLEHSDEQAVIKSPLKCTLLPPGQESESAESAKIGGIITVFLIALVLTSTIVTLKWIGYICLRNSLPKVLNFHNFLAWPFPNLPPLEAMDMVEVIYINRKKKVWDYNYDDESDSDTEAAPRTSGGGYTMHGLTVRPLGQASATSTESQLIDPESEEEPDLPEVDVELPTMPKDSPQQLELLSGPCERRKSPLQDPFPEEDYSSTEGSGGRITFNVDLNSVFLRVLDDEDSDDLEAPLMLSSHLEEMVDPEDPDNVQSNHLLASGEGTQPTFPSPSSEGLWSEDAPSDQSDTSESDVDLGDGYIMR
Kind of data set: Binding of 125I-labelled human alpha interferon to human fibroblasts (Scatchard plot), Example 3. Conditions: for down regulating the interferon receptors: Figures 4 and 5. As to the method: The binding of interferons to human cells was analysed with human alpha interferon labelled with radioactive iodine. The ¹²⁵I-labelled human alpha interferon was assayed for biological activity as well as analysed by sodium dodecyl sulphate (SDS)-polyacrylamide gel electrophoresis before use to ensure that the labelled ligand was not degraded and biologically active. The labelled ligand was then used in binding studies with human fibroblasts as previously described (Thompson et al., Branca and Baglioni; and Epstein et al.). The results of this study are expressed as a Scatchard plot of the binding data in Figures 3 to 6. The cells were washed twice with growth medium to remove most of the fatty acid before they were used to measure the binding of ¹²⁵I-human alpha interferon to their receptors. B and F are concentration of bound and free ¹²⁵I-human alpha interferon respectively.

Data set [8] has as its system human alpha interferon-induced antiviral state. Kind of data set: Kinetics of the inhibition of the interferon-induced antiviral state in human fibroblasts, Example 2. The class given is cell-based. On the procedure: Human fibroblasts grown in 96 well Micro-test II plates were incubated with growth medium containing 1% fetal calf serum and 50µM arachidonic acid for up to 6 hours. The cells were then assayed for the inhibition of the human alpha interferon-induced antiviral state.
Also, human fibroblasts in 96 well Micro-test II plates were incubated with growth medium containing 1% fetal calf serum and 50µM arachidonic acid for 6 hours.

The subject of data set [9] is induction of antiviral state by mouse interferon in mouse A9 cells. The class given is cell-based. The settings on record: 50 µM.
The next data set concerns interferon activity. Conditions: Sarkar and Gupta; cited from earlier work.
Data set [10] relates to total protein and RNA synthesis in the cells. Conditions: at concentrations exceeding 1000µM; Sarkar and Gupta; cited from earlier work.
Where [11] appears, read: Homo sapiens, Fibroblast, 6 h, read-out: % inhibition of antiviral state induced by: human α interferon, 50µM compound, 10% fetal calf serum, 6 hours.
Where [12] appears, read: Homo sapiens, Fibroblast, 6 h, read-out: % inhibition of antiviral state induced by: human α interferon, 50µM compound, 1% fetal calf serum, 6 hours.
[13] abbreviates: Homo sapiens, Fibroblast, read-out: % inhibition of the antiviral state induced by human α interferon, Table 4: 50 µM compound, 1% fetal calf serum.
The mark [14] stands for this setting: Homo sapiens, Fibroblast, read-out: % inhibition of the antiviral state induced by human α interferon, Table 4: 50 µM compound, 10% fetal calf serum.

Entries after “also recorded” stand apart in the source; their conditions may differ. Where two headings read alike, the source gives them in different places.

On to `CCCCC1C(=O)N(c2ccccc2)N(c2ccc(O)cc2)C1=O` (stereo not drawn) [Oxyphenylbutazone], for which the “% inhibition in mouse L cells” value in data set [1] is “could not measure any inhibitory effect; also recorded: not measurable”. The “% inhibition in human fibroblasts” value in [2] (50 µM) is listed as “could not measure any inhibitory effect; also recorded: not measurable”.

With `O=c1c(O)c(-c2ccc(O)c(O)c2)oc2cc(O)cc(O)c12` [Quercetin], in data set [3] (setting [11]), the inhibition at 50 µM was found to be 90%. Further, the “inhibited the action of interferon” value in [3] is reported as not below 90%.

In the case of `CC(=O)N1CCN(c2ccc(OC[C@H]3CO[C@](Cn4ccnc4)(c4ccc(Cl)cc4Cl)O3)cc2)CC1` (relative stereo) [Ketoconazole, cis-1-acetyl-4-{4-[2-(2,4-dichlorophenyl)-2-imidazol-1-ylmethyl-1,3-dioxolan-4-ylmethoxy]phenyl}-piperazine, reference compound], the inhibition at 100 µM is not below 90% in data set [3] (Homo sapiens, Fibroblast, 6 h, read-out: % inhibition of antiviral state induced by: human α interferon, 100µM compound, 10% fetal calf serum, 6 hours) and not below 90% in data set [5]. For the same compound, in data set [3], the “inhibited the action of interferon” value is listed as not below 90%. Also, the “inhibition of total cellular protein synthesis” value in data set [4] is reported as “did not inhibit”.

On to `CCCCCC#CCC#CCC#CCC#CCCCC(=O)O`, for which the inhibition at 50 µM in data set [3] (setting [12]) is not below 90%; in data set [3] (setting [13]), not below 90%; in data set [3] (setting [14]), 0%; in data set [7] it was not below 80%; in data set [5], not below 90%. The inhibition at 200 µM in [3] (Homo sapiens, Fibroblast, read-out: % inhibition of the antiviral state induced by human α interferon, Table 4: 200 µM compound, 10% fetal calf serum) was not below 90%; in [3] (Homo sapiens, Fibroblast, read-out: inhibit the interferon-induced antiviral state, 200µM, 10% fetal calf serum) it was not below 90%. Besides, the “inhibited the action of interferon” value in data set [3] is not below 90%. The “inhibition of the uptake of ³[H]-uridine by the cells” value in [6] is listed as “partially inhibited”. Besides, the “down regulating the interferon receptors” value on interferon receptors is 30-60%. Besides, in data set [4], the “inhibition of total cellular protein synthesis” value is listed as “did not inhibit”.

`CCCCCC=CCC=CCC=CCC=CCCCC(=O)O` [arachidonic acid, 5,8,11,14-eicosatetraenoic acid]: the inhibition at 50 µM in data set [3] (setting [12]) is not below 90%; in [3] (setting [13]), not below 90%; in data set [3] (setting [14]), 0%; in data set [7], not below 80%; in data set [5], not below 90%. The inhibition at 300 µM in data set [3] (Homo sapiens, Fibroblast, read-out: % inhibition of the antiviral state induced by human α interferon, Table 4: 300 µM compound, 10% fetal calf serum) was not below 90%. In addition, the “inhibited the action of interferon” value in data set [3] is given as not below 90%. Further, the “inhibition of the uptake of ³[H]-uridine by the cells” value in [6] was “partially inhibited”. For the same compound, the “down regulating the interferon receptors” value at interferon receptors is 30-60%. In addition, the “reversibility of the inhibition after removal of compound” value in data set [8] (50µM for 6 hours, washed, reincubated 0.5, 1, 2 or 24 hours, 1% fetal calf serum (Figure 2)) is on record as “reversible with time”. Also, in data set [8] (50µM, 1% fetal calf serum, incubation up to 6 hours (Figure 1)), the “onset of inhibition of the interferon-induced antiviral state” value is “within minutes”. For the same compound, in [4], the “inhibition of total cellular protein synthesis” value is “did not inhibit”.

For `CCCCC/C=C\C/C=C\C/C=C\C/C=C\CCCC(=O)O` [sodium arachidonate], the inhibition at 300 µM in data set [3] (Homo sapiens, Fibroblast, read-out: inhibit the interferon-induced antiviral state, 300µM, 10% fetal calf serum) was not below 90%.

For the compound `CC(Cc1ccc(O)c(O)c1)C(C)Cc1ccc(O)c(O)c1` (stereo not drawn) [Nordihydroguaiaretic acid, 4,4′-(2,3-dimethyltetramethylene)bis(benzene-1,2-diol)], the inhibition at 50 µM in [3] (setting [11]) and in data set [5] was not below 90% throughout. The “inhibited the action of interferon” value in data set [3] is on record as not below 90%. Besides, at interferon receptors (10% fetal calf serum (Figure 6)), the “down regulation of the interferon receptors” value is on record as “does not seem to significantly down regulate”.

As for `CCCCCCCCC#CCC#CCC#CCCCC(=O)O` [5,8,11,-eicosatriynoic acid, 5,8,11-eicosatriynoic acid], in data set [3] (setting [12]), the inhibition at 50 µM was not below 90%. For the same compound, the “inhibited the action of interferon” value in [3] is not below 90%.

As for `COc1ccc2c(c1)c(CC(=O)O)c(C)n2C(=O)c1ccc(Cl)cc1` [Indomethacin], in [1], the “% inhibition in mouse L cells” value is “not measurable”. The “% inhibition in mouse A9 cells” value in [9] is “not measurable”. Also, the “concentration at which interferon activity could be suppressed” value in the data set on interferon activity is recorded as “exceeding 1000 µM”. Further, the figures for the “% inhibition in human fibroblasts” value in data set [2] (50 µM) and in [2] (300 µM) were “not measurable” and “could not measure any inhibitory effect; also recorded: not measurable”, respectively.

Turning to `CC(C)Cc1ccc(C(C)C(=O)O)cc1` (stereo not drawn) [ibuprofen], the “effect on total protein and RNA synthesis in the cells” value in data set [10] is “began to inhibit total protein and RNA synthesis”. In addition, the “concentration at which interferon activity could be suppressed” value in the data set on interferon activity is recorded as “exceeding 1000 µM”.
